Assay results from PMC3749252 (Nature chemical biology, 2013).

Columns and labels:
mouse Smoothened (mSmo) [1] = molecular target: T1, mouse Smoothened (mSmo) (Mus musculus, UniProt P56726); test: competition of binding to 20-OHC affinity beads, immunoblot
T1 sequence (P56726 32-236): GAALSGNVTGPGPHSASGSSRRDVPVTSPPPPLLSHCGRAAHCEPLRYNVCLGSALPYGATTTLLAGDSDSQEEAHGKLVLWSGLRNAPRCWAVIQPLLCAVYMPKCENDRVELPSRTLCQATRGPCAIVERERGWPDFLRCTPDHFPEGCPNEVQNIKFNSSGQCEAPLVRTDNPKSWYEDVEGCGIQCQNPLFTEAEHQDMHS

mouse Smoothened (mSmo) [2] = molecular target: T1, mouse Smoothened (mSmo); test: competition of 22-NHC bead binding

Row | Structure (SMILES) | competition of binding to 20-OHC affinity beads, immunoblot (mouse Smoothened (mSmo) [1]) | competition of 22-NHC bead binding; 20-OHC affinity beads, immunoblot (mouse Smoothened (mSmo) [2])
1 | C[C@H](CCCC(C)(C)O)[C@H]1CC[C@H]2[C@@H]3CC=C4C[C@@H](O)CC[C@]4(C)[C@H]3CC[C@]12C [25-OHC] | binding of mSmo and mSmoCRD to 20-OHC beads was competed by the active oxysterol 25-OHC | 
2 | CC(C)CCC[C@](C)(O)[C@H]1CC[C@H]2[C@@H]3CC=C4C[C@@H](O)CC[C@]4(C)[C@H]3CC[C@@]21C [20(S)-hydroxycholesterol] |  | Binding of mSmoCRD to 22-NHC beads was competed by 20-OHC and 20-OHC-Pent, but not by 7-OHC
